In patent US20090023683A1, “COMPLEXES COMPRISING ZOLEDRONIC ACID AND CYCLODEXTRINS” (priority 2007, published 2009):

Key:
[1] = Water solubility at 25° C. of zoledronic acid-HPβCD complexes and zoledronic acid monohydrate; format: physicochemical
Text: Solubility data of Examples 1-5 and Zoledronic Acid Monohydrate

[2] = cited from earlier work
[3] = cited from earlier work; remark: listed apart in the source

For O=P(O)(O)C(O)(Cn1ccnc1)P(=O)(O)O [Zoledronic acid monohydrate, zoledronic acid monohydrate], the solubility [1] was less than 7000 µg/mL.
For O=P(O)(O)C(O)(Cn1ccnc1)P(=O)(O)O [zoledronic acid], the “water solubility (in words)” value [2] is given as “sparingly water-soluble”.
In the case of hydroxypropyl-β-cyclodextrin [HPβCD], the “adverse effects in human studies” value [3] is listed as “no adverse effects are observed” and the solubility in water ([2]; room temperature) is listed as “greater than 500 mg/ml”.
